Test results as given in US9173935B2, “Phospholipid drug analogs” (Telormedix SA, priority 2010, dated 2015).
Where two headings read alike, the source gives them in different places.

Columns and labels:
[1] = system: HLA-DR+/CD11c+/CD123- mDCs; assay: FACS analysis of myeloid DC activation in whole blood; format: cell-based, human; details: 24 hours, 0.1 and 0.5 uM, three donors
Experimental: (§1) A flow cytometric analysis was performed on whole blood from three donors after treatment with two compound concentrations for 24 h. The FACS analysis for donor 1 and donor 2 was made on another day than donor 3. The compound concentrations were as follows:
(§2) The FACS analysis was used to identify whether the test compounds could induce activation of B cells, and two different subsets of dendritic cells, namely the myeloid CD11c+/CD123− DCs and the plasmacytoid CD11c−/CD123+ DCs. The following markers were studied to identify the activation status of the different subsets:
(§3) The FACS staining was performed according to the manufacturer's instructions. Lysis of red blood cells was performed before FACS staining in order to minimize auto-florescence. To include as many B cells and DCs in the study as possible the FACS analyses were performed on 500,000 cells in total for each staining. A P1 gate was set only to include relevant cells on FSC vs. SSC (see FIGS. 12-15). The results of the individual analysis were present as Mean Fluorescence Intensity
The analysis of myeloid DCs was based on HLA-DR+/CD11c+/CD123-cells, thus all analyzed cells was included in the HLA-DR+ (P3) gate and CD11c+/CD123− (Q4) gate (see gates in FIGS. 13-15).

[2] = system: AY-27 rat bladder cancer cell-line
[3] = system: Raw264.7 mouse macrophage cell line; assay: IL-6 and TNF-alpha secretion in Raw264.7 cells (ELISA); format: cell-based; details: Mus musculus, RAW264.7, 24 hours treatment, 7 doses
Experimental: EC50 values were determined for control and each drug candidate for IL-6 and TNF-alpha secretion. […] The cells were plated in 96 well plates and treated with TLR7 agonists for 24 hours in 7 doses. The conditioned media was removed after 24 hours for ELISA analyses. The cells were subsequently assayed for viability using the XTT assay according to the guidelines from the supplier. […] The experiment was performed in quadruplicate wells for each testing series, and the supernatant pooled and measured by ELISA in triplicates. Concentrations of IL-6 and TNF-alpha were determined by ELISA from R&D Systems using the Microsoft Excel Software. The results were analyzed in Graph Pad Prism in order to prepare dose-response curves, and for determination of EC50 values.

human PBMCs = assay: IL-6 secretion in human PBMCs, two batches of Compound A and SC12; format: cell-based; details: Homo sapiens, PBMC, 24 h
Experimental: PBMCs were purified from two donors and plated into 96 well plates at 2×10^5 cells/well in RPMI media including human 2% heat inactivated AB serum, glutamine, Pen-strep and R-mercapto-ethanol. The cells were treated with TLR7 agonists for 24 h in 4 doses. The conditioned media was removed for ELISA analyses for IL-6, and the EC50 value determined for each compound and each batch.
All compounds were tested in four concentrations (10-1-0.1-0.01 micromolar).
Concentrations of IL-6 were determined by ELISA from R&D Systems using the Microsoft Excel software. The results were analyzed in Graph Pad Prism in order to prepare dose-response curves, and for determination of EC50 values.

HLA-DR+/CD20+ B cells = assay: FACS analysis of B cell activation (CD40) in whole blood; format: cell-based, human; details: 24 hours, 2 and 10 uM, three donors
Experimental: as §1
B cell activation: 2 and 10 uM
as §2, §3
The analysis of expression of the activation marker CD40 on B cells was made on double positive HLA-DR (MHC class II) (P4 gate) and CD20 cells (B cell marker) (P8 gate).

whole blood = assay: Cytokine secretion in human whole blood assay (ELISA); format: cell-based
Experimental: A volume of approximately 55 mL fresh whole blood was drawn in heparinized Vacutainers from three healthy adult anonymous volunteers as described (J. A. Ida, Journal of Immunol Methods, 310, 2006, 86-99). […] Before drawing the blood, the compounds were added to 96 well round bottom plates in a 10× diluted sample at 20 ul. The compounds were diluted in RPMI media without serum but with antibiotics. Antibiotics were added at a 10× concentration. After drawing the blood, the whole blood sample was gently mixed to obtain a homogeneous sample, and 180 ul was added to each well.
After 6 hours and 24 hours incubation, plasma was removed for ELISA (IL-6, IL-10, IL-12p40 and IFN-alpha). ELISA was made at the 6 and 24 hours time point for all concentrations. After 24 hours incubation with selected compound concentrations, cells were analyzed for activation markers by FACS.
All compounds were setup in concentrations at 0-0.01-0.03-0.1-0.5-2.0-10.0 micromolar as the final concentration. Vehicle control was DMSO control, where we used the highest concentration used for the compounds. After addition of blood, all plates were gently agitated at 37° C. and 5% CO2 until harvest. The samples were removed after 6 or 24 hours incubation, and pooled into appropriate tubes (2 ml).
Concentrations of cytokines were determined by ELISA from R&D Systems. The results were analyzed in Graph Pad Prism in order to prepare dose-response
curves, and for determination of EC50 values. FACS analysis was made by using Becton-Dickinson FACSDiva software and subsequently illustrated in Graph Pad Prism.

PBMCs = assay: IL-6 and TNF-alpha secretion in PBMCs from three donors (ELISA); format: cell-based, human; details: Homo sapiens, PBMC
Experimental: EC50 values were determined for control and each drug candidate for IL-6 and TNF-alpha secretion. […] The cells were treated with TLR7 agonists for 24 hours in 7 doses. The conditioned media was removed for ELISA analyses for IL-6 and TNF-alpha, and cell survival determined by the XTT method according to the protocol from the supplier. […] Concentrations of IL-6 and TNF-alpha were determined by ELISA from R&D Systems using the Microsoft Excel Software. The results were analyzed in Graph Pad Prism in order to prepare dose-response curves, and for determination of EC50 values.

[4] = system: receptors associated with pain-related syndromes (e.g. adenosine and sodium channel); assay: Radioligand binding assay among 73 primary molecular targets; details: SC12 at fixed concentration of 30 microM
CYP2E1 = CYP2E1 (Homo sapiens (Human), UniProt P05181); assay: Fluorescent High Throughput P450 assay, CYP2E1; format: biochemical; details: substrate MFC; read-out: CYP2E1 IC50 (Mean ± S.D.)
Experimental: Inhibition of the P450 isoforms was measured in specific assays using specific substrates that become fluorescent upon CYP metabolism. Compounds, dissolved in ACN (acetonitrile) (CYP2E1, CYP2C8, CYP2B6, CYP3A5) or DMSO (all remaining isoforms), were tested in duplicate (n=2) in concentration-response curves (eight concentrations) in a 96-well plate containing incubation/NADPH regenerating buffer. Specific isoenzymes and substrates were added and incubated at 37° C. Reactions were terminated at different times, depending on the assays, and plates read on a Fluoroskan Ascent at the appropriate emission/excitation wavelengths. Concentration-response curves performed in duplicate for known inhibitors for each isoenzyme were tested in every assay as positive control.

[5] = day 12, group 1 Imiquimod 0.1%, group 2 SC12 0.38%

CYP2E1, sequence (P05181 whole entry, looked up): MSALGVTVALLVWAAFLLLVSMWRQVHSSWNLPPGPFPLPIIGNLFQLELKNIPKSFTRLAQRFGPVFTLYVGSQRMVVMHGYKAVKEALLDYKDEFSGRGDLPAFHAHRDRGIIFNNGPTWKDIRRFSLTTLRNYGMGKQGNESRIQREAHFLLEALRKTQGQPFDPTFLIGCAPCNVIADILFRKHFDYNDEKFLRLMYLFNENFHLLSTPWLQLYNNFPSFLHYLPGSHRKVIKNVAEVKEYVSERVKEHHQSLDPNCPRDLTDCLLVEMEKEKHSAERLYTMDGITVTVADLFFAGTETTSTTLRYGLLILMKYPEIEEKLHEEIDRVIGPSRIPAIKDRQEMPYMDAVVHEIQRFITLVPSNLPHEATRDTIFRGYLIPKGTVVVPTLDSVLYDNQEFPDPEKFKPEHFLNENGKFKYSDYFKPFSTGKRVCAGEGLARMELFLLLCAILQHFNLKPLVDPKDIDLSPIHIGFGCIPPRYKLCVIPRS

`CC(C)Cn1cnc2c(N)nc3ccccc3c21` [Imiquimod, reference compound] was tested, and the “CCR7 expression on mDCs” value [1] was “showed high CCR7 expression”, the “CD80 expression on mDCs” value [1] was “weak expression of CD80 in donor 1 and 2” and the “Number of rats with a tumor positive bladder” value ([2]; day 12) was 9 of 14. For the same molecule, the “Rats with pT2 Tumor, number (% of 14)” value [2, 5] was 9 (64.3%), the “Tumor free rats, number (% of 14)” value [2, 5] was 5 (35.7%) and the “Mean weight of the rat bladders” value ([2]; day 12, intravesical 0.5 ml on day 2 and 5, group 1 Imiquimod 0.1%, group 2 SC12 0.38%) was 0.1201 grams. For the same molecule, the “Mean number of tumors per rat bladder” value ([2]; group 1 Imiquimod 0.1%, group 2 SC12 0.38%) was 1.71, the Signs of toxicity ([2]; intravesical instillation day 2 and 5) was “No signs of toxicity” and the Mean invasion depth ([2]; tumor positive bladders, group 1 Imiquimod 0.1%, group 2 SC12 0.38%) was 1.3333 mm. For the same molecule, the EC50 ([3]; read-out: EC 50 IL 6) was 2 µM, the EC50 ([3]; read-out: EC 50 TNF-alpha) was 2.16 µM and the EC50 (human PBMCs; Donor 1, 4 doses) was 18 µM. The EC50 (human PBMCs; Donor 2, 4 doses) was 18.4 µM, the “CD40 expression (MFI) on B cells” value (HLA-DR+/CD20+ B cells) was “increased expression in all three donors” and the IL-6 secretion induced (whole blood; 6 h incubation, up to 10.0 micromolar) was “low and insignificant amounts of IL-6”. The IFN-alpha secretion induced (whole blood; 6 hours incubation) was “did not induce IFN-alpha secretion”, the IL-10 production (whole blood; 6 hours incubation) was “no IL-10 production was seen” and the IL-12p40 secretion induced (whole blood; 6 hours incubation) was “did not induce IL-12p40 secretion”. The IL-12p40 secretion induced (whole blood; 24 hours incubation) was “did not induce IL-12p40”, the EC50 (PBMCs; 24 h, Donor 1, 24 hours, read-out: IL-6 secretion MC50) was 6.35 µM and the EC50 (PBMCs; 24 h, Donor 1, 24 hours, read-out: TNFa secretion MC50) was 3.07 µM. The EC50 (PBMCs; 24 h, Donor 2, 24 hours, read-out: IL-6 secretion MC50) was 1.99 µM, the EC50 (PBMCs; 24 h, Donor 2, 24 hours, read-out: TNFa secretion MC50) was 24.9 µM and the EC50 (PBMCs; 24 h, Donor 3, 24 hours, read-out: IL-6 secretion MC50) was 4.64 µM. For the same molecule, the EC50 (PBMCs; 24 h, Donor 3, 24 hours, read-out: TNFa secretion MC50) was 22.4 µM, the EC50 (PBMCs; D1, first experiments on three donors, read-out: EC50 values, IL-6 secretion) was 6.35 µM and the EC50 (PBMCs; D2, first experiments on three donors, read-out: EC50 values, IL-6 secretion) was 1.99 µM. It also gave an EC50 (PBMCs; D3, first experiments on three donors, read-out: EC50 values, IL-6 secretion) of 4.64 µM, an EC50 (PBMCs; average of three donors, read-out: IL-6 secretion Average EC50) of 4.33 µM and an EC50 (PBMCs; average of three donors, read-out: TNFa secretion Average EC50) of 16.8 µM. The “Binding to receptors associated with pain-related syndromes” value [4] was “shown to bind”.

Work on `CCN(CC)C(=S)S` [DDTC, reference compound] yielded an IC50 (CYP2E1) of 0.85 ± 0.01 µM.
